Test results as given in patent publication US9976149B2, “Modified listeria bacteria and uses thereof” (priority 2014, dated 2018).
Converted amounts (≈) assume the structure as drawn.

Tests used:
ΔmdrMTAC = assay: Minimal inhibitory concentration for ΔmdrMTAC; type: cell-based; settings: Listeria monocytogenes, read-out: minimal inhibitory concentration
WT bacteria [1] = assay: Minimal inhibitory concentration for WT bacteria; type: cell-based; settings: Listeria monocytogenes
Description: (§1) Overnight cultures were adjusted to 0.03 O.D.600 in 20 ml fresh BHI broth, supplemented when indicated with 0.25 mM IPTG, 0.08 μg ml^−1 penicillin G, 1 μg ml^−1 vancomycin or 3 μg ml^−1 c-di-AMP. For bacterial RNA extraction, bacteria were grown at 37° C. to O.D.600 0.4, then supplemented with 3 μg ml^−1 lincomycin, 50 μM rhodamine 6 G (R6G), 1 μg ml^−1 vancomycin, 0.08 μg ml^−1 penicillin G for 2 h; or centrifuged and resuspended in minimal media pH 5 (lactic acid), minimal media with 10 mM H2O2, or defined minimal media pH 5 with 10 mM H2O2 for 30 mM For microscopy bacteria were grown similarly and supplemented with 1 μg ml^−1 vancomycin for 2 h. Growth curves in the presence of drugs were performed in a Synergy HT BIOTEK® plate reader at 37° C. with continuous shaking following O.D.600 every 15 min for 24 h. Of note, bacterial growth in the plate reader is different than in flasks in respect to the O.D. levels that are measured. In each experiment, growth conditions are indicated.

WT L. monocytogenes = assay: Growth curves in BHI with added cyclic dinucleotide, WT bacteria; type: cell-based, Listeria monocytogenes; settings: for effect on growth in the absence of vancomycin stress: BHI, dinucleotide 3 μg ml^−1; for effect on growth in the presence of vancomycin: vancomycin 1 μg ml^−1, dinucleotide 3 μg ml^−1
Description: as §1

ΔmdrMTAC mutant = assay: Growth curves in BHI with added cyclic dinucleotide, ΔmdrMTAC mutant; type: cell-based, Listeria monocytogenes; settings: for effect on growth in the absence of vancomycin stress: BHI, dinucleotide 3 μg ml^−1; for effect on growth in the presence of vancomycin: vancomycin 1 μg ml^−1, dinucleotide 3 μg ml^−1
Description: as §1

[2] = system: dacA gene transcription in WT bacteria; assay: RT-qPCR of dacA transcription upon vancomycin treatment, WT bacteria; type: cell-based, Listeria monocytogenes
Description: as §1, with “[…];” for “1 μg ml^−1 vancomycin, 0.08 μg ml^−1 penicillin G for 2 h;”
RNA was purified from bacteria in mid-log growth in BHI or from infected cells using standard phenol-chloroform extraction methods. RNA from intracellularly grown bacteria was amplified using MESSAGEAMP™ II (AMBION™) bacterial RNA amplification kit according to the manufacturer's instructions. RNA of infected macrophages was extracted using TRIZOL® reagent according to standard protocols. […]

WT bacteria [3] = assay: TEM sections, cell wall thickness under vancomycin treatment, WT bacteria; type: cell-based, Listeria monocytogenes; settings: vancomycin 1 μg ml^−1 for 2 h
Description: as §1
Bacteria were grown as described above with and without vancomycin treatment. For negative staining, PBS washed bacteria were adsorbed on formvar/carbon coated grids and stained with 2% aqueous uranyl acetate. For TEM sections, a bacterial pellet from 20 ml of culture was fixed in 2.5% glutaraldehyde in PBS at 4° C. for 20 h, washed three times with PBS and post-fixed in 1% OsO4 in PBS at 4° C. for 2 h. […]

| SMILES | MIC (ΔmdrMTAC) [µg/mL] | MIC (WT bacteria [1]) [µg/mL] | effect on growth in the absence of vancomycin stress (WT L. monocytogenes) | effect on growth in the presence of vancomycin (WT L. monocytogenes) | effect on growth in the absence of vancomycin stress (ΔmdrMTAC mutant) | effect on growth in the presence of vancomycin (ΔmdrMTAC mutant) | dacA transcription level in comparison to non-treated bacteria ([2]; sub-lethal vancomycin 1 μg ml^−1) [fold] | dacA transcription level in comparison to non-treated bacteria ([2]; vancomycin 20 μg ml^−1 for 10 minutes) [fold] | cell wall thickness, average (WT bacteria [3]) [nm] |
| --- | --- | --- | --- | --- | --- | --- | --- | --- | --- |
| CC1(C)S[C@@H]2[C@H](NC(=O)Cc3ccccc3)C(=O)N2[C@H]1C(=O)O [penicillin, penicillin G] | 0.08 (≈ 0.239 µM) | 0.15 |  |  |  |  |  |  |  |
| Nc1ncnc2c1ncn2[C@@H]1O[C@@H]2COP(=O)(O)O[C@H]3[C@@H](O)[C@H](n4cnc5c(N)ncnc54)O[C@@H]3COP(=O)(O)O[C@H]2[C@H]1O [c-di-AMP, cyclic-di-adenosine monophosphate] |  |  | no effect | shorter lag phase | no effect | shorter lag phase |  |  |  |
| Nc1nc2c(ncn2[C@@H]2O[C@@H]3COP(=O)(O)O[C@H]4[C@@H](O)[C@H](n5cnc6c(=O)[nH]c(N)nc65)O[C@@H]4COP(=O)(O)O[C@H]3[C@H]2O)c(=O)[nH]1 [c-di-GMP] |  |  | no effect | no effect | no effect | no effect |  |  |  |
| CN[C@H](CC(C)C)C(=O)N[C@H]1C(=O)N[C@@H](CC(N)=O)C(=O)N[C@H]2C(=O)N[C@H]3C(=O)N[C@H](C(=O)N[C@H](C(=O)O)c4cc(O)cc(O)c4-c4cc3ccc4O)[C@H](O)c3ccc(c(Cl)c3)Oc3cc2cc(c3O[C@@H]2O[C@H](CO)[C@@H](O)[C@H](O)[C@H]2O[C@H]2C[C@](C)(N)[C@H](O)[C@H](C)O2)Oc2ccc(cc2Cl)[C@H]1O [vancomycin] | 1.5 (≈ 1.04 µM) | 2 |  |  |  |  | 1.5 | 4.5 | 35 |
